Earlier results on one sequence are cited in US20250135014A1, “TARGETED LINEAR CONJUGATES COMPRISING POLYETHYLENEIMINE AND POLYETHYLENE GLYCOL AND POLYPLEXES COMPRISING THE SAME” (TARGIMMUNE THERAPEUTICS AG, priority 2021, published 2025).

This data set deals with EGFR (Homo sapiens, UniProt P00533). Conditions: Ruoslahti et al. 2012; Li et al. 2005.

Usually Kd stands for the equilibrium constant for the complex coming apart. Consider YHWYGYTPQNVI [GE-11], for which the Kd was 22 nM.
